Each structure is given as a SMILES string.

T1 sequence (Q99705 whole entry): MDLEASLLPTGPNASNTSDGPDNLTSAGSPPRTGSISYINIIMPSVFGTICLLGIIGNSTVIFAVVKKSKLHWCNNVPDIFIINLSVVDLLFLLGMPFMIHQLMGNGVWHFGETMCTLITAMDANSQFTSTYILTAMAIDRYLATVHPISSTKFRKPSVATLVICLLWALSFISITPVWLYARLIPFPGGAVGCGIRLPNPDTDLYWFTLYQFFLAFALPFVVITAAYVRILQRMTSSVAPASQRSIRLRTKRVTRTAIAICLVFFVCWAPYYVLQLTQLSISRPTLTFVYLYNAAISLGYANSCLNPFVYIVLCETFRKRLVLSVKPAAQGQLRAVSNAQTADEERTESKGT

This test has as its target T1, hMCHR (Homo sapiens, UniProt Q99705).
T1 construct: host or cells: CHO (Chinese hamster ovary) cells, membranes
The test can be described thus: MCH Assay PCOP Protocol: [125I]-MCH binding to hMCHR-CHO membranes, WGA-SPA beads. The following applies: hMCHR-CHO overexpressing membranes, 0.5 nM [125I]-MCH, 2 hours incubation. How it is done: A reaction mixture of 10 μg hMCHR-CHO overexpressing membranes (from Receptor Biology, Inc., Beltville, Md., or internally produced) and 100 μg/well WGA-SPA beads (from Amersham Pharmacia Biotech, Inc., Piscataway, N.J.)/100 μL was prepared in MCHR assay buffer (25 mM HEPES, pH 7.4, 10 mM NaCl, 10 mM MgCl2, 5 mM MnCl2, 0.1%BSA). […] The assay plates were shaken for 5 minutes on a plate shaker, then incubated for 2 hours before cpm/well were determined in a Microbeta Trilux counter (from Perkin Elmer Wallac, Inc., Gaithersburg, Md.).
As a reminder, the Ki is the equilibrium dissociation constant of an inhibitor or competing ligand from its target. High values mean a looser hold on the target, low ones a stronger hold on the target. As for `COCCN1CCC(CNC(=O)Nc2ccc(F)c(Cl)c2)(c2ccc(-c3cccc(C#N)c3)cc2)CC1` [Example 90], the Ki was in the range of 0.0002 to 0.01 µM.
Then `O=C(Nc1cc(Cl)cc(Cl)c1)N1CCC(CNCC2CC2)(c2ccc(-c3cccc(Cl)c3)cc2)CC1` [Example 128], with 0.101 to 5.5 µM; and `COCCN1CCC(CNCc2cc(Cl)cc(Cl)c2)(c2ccc(-c3cccc(NC(C)=O)c3)cc2)CC1` [Example 135], with 0.101 to 5.5 µM; and `COCCN1CCC(CNC(=O)Nc2ccc(OC)c(Cl)c2)(c2ccc(-c3cccc(C#N)c3)cc2)CC1` [Example 95], with 0.011 to 0.1 µM.
`CN1CCC(CNC(=O)Nc2ccccc2)(c2ccc(-c3cccc(Cl)c3)cc2)CC1` [Example 62]: the Ki lay within 0.0002 to 0.01 µM.
Then `CCCN1CCC(CNC(=O)Nc2ccc3c(c2)OCO3)(c2ccc(-c3cccc(C#N)c3)cc2)CC1` [Example 101], with 0.011 to 0.1 µM.
Then `CN1CCC(CNC(=O)Nc2ccc(Cl)c(C(F)(F)F)c2)(c2ccc(-c3cccc(Cl)c3)cc2)CC1` [Example 51], with 0.0002 to 0.01 µM; and `CCCN1CCC(CNC(=O)Nc2cc(F)cc(F)c2)(c2ccc(-c3cccc(C#N)c3)cc2)CC1` [Example 102], with 0.0002 to 0.01 µM.
Then `O=C(NCC1(c2ccc(-c3cccc(Cl)c3)cc2)CCN(C2CCC2)CC1)Nc1cc(Cl)cc(Cl)c1` [Example 107], with 0.101 to 5.5 µM.
`O=C(NCC1(c2ccc(-c3cccc(Cl)c3)cc2)CCN(C2CCCC2)CC1)Nc1cc(Cl)cc(Cl)c1` [Example 77]: the Ki is 0.0002 to 0.01 µM.
Then `CN1CCC(CNC(=O)Nc2cc(Cl)cc(Cl)c2)(c2ccc(-c3ccc4[nH]ccc4c3)cc2)CC1` [Example 78], with 0.101 to 5.5 µM.
As for `COCCN1CCC(CN(C)C(=O)Nc2cc(Cl)cc(Cl)c2)(c2ccc(-c3cccc(C#N)c3)cc2)CC1` [Example 88], the figure is 0.0002 to 0.01 µM; as for `COc1ccc(-c2ccc(C3(CNC(=O)Nc4cc(Cl)cc(Cl)c4)CCN(C)CC3)cc2)cn1` [Example 44], 0.011 to 0.1 µM; as for `CN1CCC(CN(C)C(=O)Nc2cc(Cl)cc(Cl)c2)(c2ccc(-c3cccc(C#N)c3)cc2)CC1` [Example 38], 0.0002 to 0.01 µM.
Take `COCCN1CCC(CNC(=O)Nc2ccc(Cl)c(C(F)(F)F)c2)(c2ccc(-c3cccc(C#N)c3)cc2)CC1` [Example 94]: the Ki lay in the range of 0.0002 to 0.01 µM.
Then `O=C(NCC1(c2ccc(-c3cccc(Cl)c3)cc2)CCN(CC2CC2)CC1)Nc1ccc(Cl)cc1C(F)(F)F` [Example 48], with 0.101 to 5.5 µM.
As for `CCCN1CCC(CNC(=O)Nc2ccc(F)c(Cl)c2)(c2ccc(-c3cccc(C#N)c3)cc2)CC1` [Example 65], the figure is 0.0002 to 0.01 µM; as for `CCCN1CCC(CNC(=O)Nc2cc(Cl)cc(Cl)c2)(c2ccc(C)cc2)CC1` [Example 27], 0.101 to 5.5 µM; as for `CN1CCC(CNC(=O)Nc2ccc(F)cc2F)(c2ccc(-c3cccc(C#N)c3)cc2)CC1` [Example 9, 1-[4-(3′-Cyano-biphenyl-4-yl)-1-methyl-piperidin-4-ylmethyl]-3-(2,4-difluoro-phenyl)-urea], 0.0002 to 0.01 µM.
As for `CCN1CCC(CNC(=O)Nc2cc(Cl)cc(Cl)c2)(c2ccc(-c3cccc(Cl)c3)cc2)CC1` [Example 121], the figure is 0.011 to 0.1 µM.
For `CN1CCC(CNC(=O)Nc2ccc(Cl)cc2C(F)(F)F)(c2ccc(-c3cccc(C#N)c3)cc2)CC1` [Example 67], the Ki is 0.101 to 5.5 µM.
Compound `CCCN1CCC(CNC(=O)Nc2cc(C(F)(F)F)ccc2Cl)(c2ccc(-c3cccc(C#N)c3)cc2)CC1` [Example 63] showed a Ki of 0.011 to 0.1 µM.
As for `O=C(NCC1(c2ccc(-c3ccc4c(c3)OCO4)cc2)CCN(C2CCCC2)CC1)Nc1cc(Cl)cc(Cl)c1` [Example 81], the figure is 0.0002 to 0.01 µM.
Then `O=C(NCC1(c2ccc(-c3cccc(Cl)c3)cc2)CCN(C2CCCCC2)CC1)Nc1cc(Cl)cc(Cl)c1` [Example 120], with 0.0002 to 0.01 µM; and `CC(=O)Nc1cccc(-c2ccc(C3(CNC(=O)Nc4cc(Cl)cc(Cl)c4)CCN(C4CCOCC4)CC3)cc2)c1` [Example 110], with 0.011 to 0.1 µM; and `CC(=O)Nc1cccc(-c2ccc(C3(CNC(=O)Nc4cc(Cl)cc(Cl)c4)CCN(C4CCCCC4)CC3)cc2)c1` [Example 122], with 0.0002 to 0.01 µM.
